From patent publication US7915050B2, “Regulatory genes for plant differentiation and growth, and use of the same” (National University Corporation Nagoya University, priority 2005, dated 2011)
pKd: −log10 of the molar value.

Target: T1, AtGID1c in the presence of RGA (Arabidopsis thaliana, UniProt Q940G6)
T1 construct: made in house; host or cells: E. coli (stated for AtGID1)
T1 sequence (Q940G6 1-344): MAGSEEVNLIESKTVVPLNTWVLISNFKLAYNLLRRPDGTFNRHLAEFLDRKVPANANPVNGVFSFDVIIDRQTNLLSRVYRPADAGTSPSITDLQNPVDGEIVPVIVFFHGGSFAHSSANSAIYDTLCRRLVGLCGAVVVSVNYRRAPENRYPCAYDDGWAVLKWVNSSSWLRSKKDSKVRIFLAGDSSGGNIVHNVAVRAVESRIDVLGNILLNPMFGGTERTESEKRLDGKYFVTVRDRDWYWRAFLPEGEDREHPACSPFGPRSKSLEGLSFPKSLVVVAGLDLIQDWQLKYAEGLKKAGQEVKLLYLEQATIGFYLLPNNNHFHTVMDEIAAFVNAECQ
T1 sequence (Q9SLH3 1-587 partner): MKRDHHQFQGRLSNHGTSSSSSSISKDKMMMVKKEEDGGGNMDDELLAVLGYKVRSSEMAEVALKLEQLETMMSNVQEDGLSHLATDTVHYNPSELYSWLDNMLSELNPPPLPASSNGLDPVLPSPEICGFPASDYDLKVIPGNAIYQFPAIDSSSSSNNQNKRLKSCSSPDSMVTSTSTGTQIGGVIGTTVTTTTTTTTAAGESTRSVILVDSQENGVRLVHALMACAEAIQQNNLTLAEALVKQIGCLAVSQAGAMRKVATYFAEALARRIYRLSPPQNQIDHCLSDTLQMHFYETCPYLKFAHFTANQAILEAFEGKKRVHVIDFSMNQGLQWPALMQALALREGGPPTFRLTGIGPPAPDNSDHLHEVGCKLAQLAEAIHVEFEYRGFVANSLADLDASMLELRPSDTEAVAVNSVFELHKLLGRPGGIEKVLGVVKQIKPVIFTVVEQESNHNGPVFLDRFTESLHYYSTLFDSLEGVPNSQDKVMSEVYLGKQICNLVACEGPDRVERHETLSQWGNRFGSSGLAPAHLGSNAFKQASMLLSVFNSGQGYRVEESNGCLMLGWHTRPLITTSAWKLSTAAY
Test: Scatchard analysis of AtGID1c-GA binding in the presence of RGA
Description: Panel A) depicts AtGID1-AtDELLA interaction in the presence of GA in two types of yeast hybrid (Y2H) assays. Each AtGID1 was used as a bait while AtDELLA was a prey. GA4 (10^−5 M) was added to the medium. The bars indicates β-galactosidase activity when o-nitrophenol-β-D-galactopyranoside was used as a substrate (Assay B). The growth of each transformant in the defined medium for 2 days (Assay A) is shown beneath of each bar graph. The experiment was carried out in quadruplicate. The SD value shown in the figure was determined from three measurements. Panel B) depicts the dose response in AtGID1-RGA interaction in Assay B of Y2H. GA4 (10^−5 to 10^−9 M) was added to the medium. The experiment was conducted in […]. The SD value shown in the figure was determined from three measurements. Panel C) depicts the results of an evaluation of the in vitro GA-binding potency of AtGID1 using AtDELLA. […] GAI (G) or RGA (R) was added, and then the GA-binding activity in each reaction mixture was measured according to the standard method. […] The SD value was determined from three measurements. […]
Next, whether AtDELLAs exert some kind of influence on the GA-binding activity of AtGID1s was examined in vitro. After labeled 16,17-dihydro-GA4 and AtGID1s were combined, AtDELLAs were added to the solutions, and the GA-binding activity was measured. […]

CC1C[C@]23C[C@H]1CCC2[C@]12CC[C@H](O)[C@](C)(C(=O)O1)[C@H]2[C@@H]3C(=O)O (stereo partly shown) [H2-GA4, 16,17-dihydro-GA4]
pKd: 7.92
